Experimental data: patent US8329913B2, “Carbazole derivative, solvate thereof, or pharmaceutically acceptable salt thereof” (Zeria Pharmaceutical Co., Ltd., priority 2004, dated 2012)

Molecular target: T1, human PPARγ (Homo sapiens, UniProt P37231)
T1 construct: 1.6 kb of fragment of the prepared plasmid pGEMT-hPPARg2 including human PPARγ gene; expressed in transfected cells; host or cells: CV-1 cells, transient transfection with pCI-hPPARg2, pCI-hRXRa and the reporter pGL3-PPRE3-TK
T1 sequence (P37231 1-505): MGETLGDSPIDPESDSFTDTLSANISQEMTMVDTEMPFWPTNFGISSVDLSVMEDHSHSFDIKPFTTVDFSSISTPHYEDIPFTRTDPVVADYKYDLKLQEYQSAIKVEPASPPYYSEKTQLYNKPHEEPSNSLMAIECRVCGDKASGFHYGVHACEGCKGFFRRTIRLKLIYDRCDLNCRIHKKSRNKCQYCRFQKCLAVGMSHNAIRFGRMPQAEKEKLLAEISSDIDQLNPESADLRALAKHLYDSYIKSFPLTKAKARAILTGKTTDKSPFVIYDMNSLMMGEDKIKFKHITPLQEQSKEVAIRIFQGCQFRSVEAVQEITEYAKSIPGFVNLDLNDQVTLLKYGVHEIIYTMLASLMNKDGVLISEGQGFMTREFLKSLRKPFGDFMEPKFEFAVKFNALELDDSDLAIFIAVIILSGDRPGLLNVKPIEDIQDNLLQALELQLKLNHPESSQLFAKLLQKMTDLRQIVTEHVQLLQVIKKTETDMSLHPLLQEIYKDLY
T1 sequence (P19793 1-462 partner): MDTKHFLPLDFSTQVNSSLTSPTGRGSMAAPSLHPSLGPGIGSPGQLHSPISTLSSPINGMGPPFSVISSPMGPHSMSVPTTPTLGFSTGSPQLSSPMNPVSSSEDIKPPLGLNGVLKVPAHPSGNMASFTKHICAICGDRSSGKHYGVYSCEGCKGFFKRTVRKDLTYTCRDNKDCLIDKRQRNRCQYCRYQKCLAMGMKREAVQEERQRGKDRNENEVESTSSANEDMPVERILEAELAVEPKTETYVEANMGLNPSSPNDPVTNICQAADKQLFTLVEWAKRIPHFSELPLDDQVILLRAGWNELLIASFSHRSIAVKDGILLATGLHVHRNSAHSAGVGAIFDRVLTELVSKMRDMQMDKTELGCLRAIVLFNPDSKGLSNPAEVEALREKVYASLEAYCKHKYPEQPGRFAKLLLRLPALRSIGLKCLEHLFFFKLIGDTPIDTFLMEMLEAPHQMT
Assay: Human PPARγ antagonist assay (luciferase reporter in transfected CV-1 cells)
Assay type: cell-based
Conditions: CV-1 cells expressing human PPARγ and RXRα with reporter plasmid; pioglitazone 1 μM as stimulant; 24 hours; read-out: Human PPARγ antagonist activities, Inhibition IC50
Summary of the method: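 CV-1 cells transiently co-transfected with human PPARγ2, RXRα, PPRE3-TK firefly luciferase and renilla plasmids were exposed 24 h at 37 °C to compound (10 nM–3 μM) plus 1 μM pioglitazone. Firefly/renilla ratios were scaled between pioglitazone alone (0%) and no addition (100%), and IC50 was taken at 50% inhibition.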

COc1cc(Cn2c3ccccc3c3c(O[C@H](C)C(=O)[O-])cccc32)ccc1OCc1nc(-c2ccccc2)oc1C.[Na+] [Example 43, sodium (R)-2-{9-[3-methoxy-4-((5-methyl-2-phenyl-oxazole-4-yl)methoxy)-benzyl]-9H-carbazole-4-yloxy}propionate]
IC50: 1.12 µM
